Source: PubChem BioAssay AID330 (DTP/NCI, 2004)
Where “and” joins values, the source holds several entries; their conditions need not be identical. Equal entries are not always repeated. Inconclusive results and toxic doses are left out.

System: P388 leukemia ip, CD2F1 mice, survival T/C
Assay: NCI In Vivo Anticancer Drug Screen. Data for tumor model P388 Leukemia (intraperitoneal) in CD2F1 (CDF1) mice
Conditions: endpoint: median survival time, higher = longer survival
Summary of the method: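 Mice carrying the transplanted tumor received test compound or vehicle. Survival was recorded in each group, and the value is the treated-group measurement divided by that of the vehicle-treated control group.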

[1] = dose: 25.0 mg/kg/injection, schedule: Q01DX009 (ip), vehicle: saline with Tween-80
[2] = dose: 50.0 mg/kg/injection, schedule: Q01DX009 (ip), vehicle: saline with Tween-80
[3] = dose: 100.0 mg/kg/injection, schedule: Q01DX009 (ip), vehicle: saline with Tween-80
[4] = dose: 200.0 mg/kg/injection, schedule: Q01DX009 (ip), vehicle: saline with Tween-80
[5] = dose: 50.0 mg/kg/injection, schedule: Q01DX009 (ip), vehicle: Klucel (hydroxypropylcellulose) (HPC)
[6] = dose: 100.0 mg/kg/injection, schedule: Q01DX009 (ip), vehicle: Klucel (hydroxypropylcellulose) (HPC)
[7] = dose: 200.0 mg/kg/injection, schedule: Q01DX009 (ip), vehicle: Klucel (hydroxypropylcellulose) (HPC)
[8] = dose: 50.0 mg/kg/injection, schedule: Q01DX005 (ip), vehicle: Klucel (hydroxypropylcellulose) (HPC)

CC[C@@]1(O)C[C@H](OC2CC(N(C)C)C(OC3CC(O)C(O[C@@H]4O[C@@H](C)C(=O)C=C4N)C(C)O3)C(C)O2)c2c(cc3c(c2O)C(=O)c2c(O)ccc(O)c2C3=O)[C@H]1C(=O)OC (stereo not given in full)
T/C (dose: 0.19 mg/kg/injection, schedule: Q01DX009 (ip), vehicle: saline): 150 % of control
T/C (dose: 0.38 mg/kg/injection, schedule: Q01DX009 (ip), vehicle: saline with Tween-80): 161 % of control
T/C (dose: 0.75 mg/kg/injection, schedule: Q01DX009 (ip), vehicle: saline with Tween-80): 175 % of control
T/C (dose: 0.75 mg/kg/injection, schedule: Q01DX009 (ip), vehicle: saline): 163 % of control
T/C (dose: 1.5 mg/kg/injection, schedule: Q01DX009 (ip), vehicle: saline with Tween-80): 89 % of control
T/C (dose: 1.5 mg/kg/injection, schedule: Q01DX009 (ip), vehicle: saline): 182 % of control
T/C (dose: 3.0 mg/kg/injection, schedule: Q01DX009 (ip), vehicle: saline): 94 % of control
T/C (dose: 1.0 micrograms/kg/injection, schedule: Q01DX005 (ip), vehicle: Klucel (hydroxypropylcellulose) (HPC)): 102 % of control
T/C (dose: 2.0 micrograms/kg/injection, schedule: Q01DX005 (ip), vehicle: Klucel (hydroxypropylcellulose) (HPC)): 106 % of control
T/C (dose: 4.0 micrograms/kg/injection, schedule: Q01DX005 (ip), vehicle: Klucel (hydroxypropylcellulose) (HPC)): 102 % of control
T/C (dose: 8.0 micrograms/kg/injection, schedule: Q01DX005 (ip), vehicle: Klucel (hydroxypropylcellulose) (HPC)): 102 % of control

NC(N)=NCCCC(N)C(=O)CC(Cc1ccc(O)cc1)C(=O)O (stereo not given)
T/C (dose: 7.5 mg/kg/injection, schedule: Q01DX005 (ip), vehicle: water): 98 % of control
T/C (dose: 15.0 mg/kg/injection, schedule: Q01DX005 (ip), vehicle: water): 98 % of control
T/C (dose: 30.0 mg/kg/injection, schedule: Q01DX005 (ip), vehicle: water): 95 % of control
T/C (dose: 60.0 mg/kg/injection, schedule: Q01DX005 (ip), vehicle: water): 98 % of control

CCC/C=C1\OC(=O)c2ccccc21
T/C (dose: 12.5 mg/kg/injection, schedule: Q01DX009 (ip), vehicle: saline with Tween-80): 104 % of control
T/C [1]: 100 % of control
T/C [2]: 104 % of control
T/C [3]: 100 % of control
T/C [4]: 114 % of control

C[N+]1(CC2CC2)C2CC(OC(=O)C(CO)c3ccccc3)CC1C1OC12 (stereo not given)
T/C (dose: 50.0 mg/kg/injection, schedule: Q01DX009 (ip), vehicle: saline): 99 % of control
T/C (dose: 100.0 mg/kg/injection, schedule: Q01DX009 (ip), vehicle: saline): 96 % of control

O=C(COc1ccc(Cl)cc1Cl)Nc1ccc(I)cc1C(=O)O
T/C [5]: 94 % of control
T/C [6]: 92 % of control
T/C [7]: 91 % of control

COc1cc2cnc(-c3ccncc3)c(N)c2cc1OC
T/C (dose: 100.0 mg/kg/injection, schedule: Q04DX003 (ip), vehicle: suspension in saline): 100 % of control
T/C (dose: 200.0 mg/kg/injection, schedule: Q04DX003 (ip), vehicle: suspension in saline): 93 % of control
T/C (dose: 400.0 mg/kg/injection, schedule: Q04DX003 (ip), vehicle: suspension in saline): 89 % of control

Fc1ccc(N=Cc2cccs2)cc1
T/C [5]: 110 % of control
T/C [6]: 107 % of control
T/C [7]: 110 % of control

C=C1C(=O)OC2/C=C(CO)/C=C\C3OC3(C)CC(OC(=O)/C(C)=C/COC(C)=O)C12 (stereo not given)
T/C (dose: 6.25 mg/kg/injection, schedule: Q01DX005 (ip), vehicle: Klucel (hydroxypropylcellulose) (HPC)): 94 % of control
T/C (dose: 12.5 mg/kg/injection, schedule: Q01DX005 (ip), vehicle: Klucel (hydroxypropylcellulose) (HPC)): 103 % of control
T/C (dose: 25.0 mg/kg/injection, schedule: Q01DX005 (ip), vehicle: Klucel (hydroxypropylcellulose) (HPC)): 109 % of control and 94 % of control
T/C [8]: 98 % of control

O=[N+]([O-])c1ccc(C=Nc2ccccc2)cc1
T/C [2]: 101 % of control
T/C [3]: 101 % of control
T/C [4]: 97 % of control
T/C (dose: 400.0 mg/kg/injection, schedule: Q01DX009 (ip), vehicle: saline with Tween-80): 96 % of control

COC(=O)CC1C(C)=CCC2C(=O)C=C(OC)C(=O)C21C (stereo not given)
T/C [8]: 101 % of control
T/C (dose: 100.0 mg/kg/injection, schedule: Q01DX005 (ip), vehicle: Klucel (hydroxypropylcellulose) (HPC)): 101 % of control
T/C (dose: 200.0 mg/kg/injection, schedule: Q01DX005 (ip), vehicle: Klucel (hydroxypropylcellulose) (HPC)): 100 % of control

C/C=C/C(=O)Nc1cccc(OC(=O)NC(C)(C)C)c1
T/C [1]: 101 % of control
T/C [2]: 100 % of control
T/C [3]: 97 % of control
